# Experimental data published in PMC5837813 (Bioorganic & medicinal chemistry letters, 2018).
# pIC50: −log10 of the molar value.
# Columns and labels:
# FAAH [1] = experiment: block of activity in brain microsomes of the different species tested
# FAAH [2] = biological target: T1, FAAH (Homo sapiens, UniProt O00519); experiment: biochemical
# T1 sequence (O00519 1-579): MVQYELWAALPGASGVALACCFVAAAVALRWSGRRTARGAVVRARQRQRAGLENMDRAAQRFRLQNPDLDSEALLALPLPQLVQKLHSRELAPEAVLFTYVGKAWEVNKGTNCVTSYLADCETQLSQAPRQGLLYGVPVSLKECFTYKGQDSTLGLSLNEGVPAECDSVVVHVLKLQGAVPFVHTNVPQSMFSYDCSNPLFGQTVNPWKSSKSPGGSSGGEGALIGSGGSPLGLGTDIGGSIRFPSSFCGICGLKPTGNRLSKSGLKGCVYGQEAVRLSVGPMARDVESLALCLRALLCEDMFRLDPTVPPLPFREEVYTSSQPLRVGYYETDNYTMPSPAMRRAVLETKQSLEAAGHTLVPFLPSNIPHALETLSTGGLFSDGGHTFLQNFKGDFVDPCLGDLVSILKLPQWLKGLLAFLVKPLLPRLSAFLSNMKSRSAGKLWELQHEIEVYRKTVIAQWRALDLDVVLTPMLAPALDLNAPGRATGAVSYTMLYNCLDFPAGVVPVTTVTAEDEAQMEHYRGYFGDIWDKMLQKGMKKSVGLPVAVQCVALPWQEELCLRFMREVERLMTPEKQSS
# human sEH = biological target: T2, human sEH (Homo sapiens, UniProt P34913); experiment: recombinant human sEH inhibition, fluorescent-based substrate; format: biochemical
# T2 sequence (P34913 1-555): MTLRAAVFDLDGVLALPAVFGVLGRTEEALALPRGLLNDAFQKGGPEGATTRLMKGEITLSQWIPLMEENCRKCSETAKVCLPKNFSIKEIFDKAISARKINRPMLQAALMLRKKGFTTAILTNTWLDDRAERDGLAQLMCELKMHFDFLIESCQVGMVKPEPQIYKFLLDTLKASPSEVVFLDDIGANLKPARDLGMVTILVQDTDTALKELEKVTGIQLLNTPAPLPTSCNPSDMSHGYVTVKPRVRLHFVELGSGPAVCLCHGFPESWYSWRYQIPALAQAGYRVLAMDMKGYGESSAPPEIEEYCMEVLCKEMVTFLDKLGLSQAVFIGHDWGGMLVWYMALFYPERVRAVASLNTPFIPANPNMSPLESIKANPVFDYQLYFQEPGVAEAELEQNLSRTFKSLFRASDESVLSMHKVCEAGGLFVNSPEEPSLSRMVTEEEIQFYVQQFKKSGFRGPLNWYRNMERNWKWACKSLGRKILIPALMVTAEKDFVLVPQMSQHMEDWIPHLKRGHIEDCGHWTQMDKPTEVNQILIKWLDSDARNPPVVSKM
# FAAH [3] = biological target: T1, FAAH; conditions: pre-incubated with FAAH at various time intervals, [S]final = 5 µM
SMILES,activity blocked in the microsomes (FAAH [1]) [%],pIC50 (FAAH [2]),pIC50 (human sEH),change of FAAH potency with pre-incubation time (in words) (FAAH [3])
"O=C(Nc1cccnc1)N1CCC(Cc2cccc(Oc3ccc(C(F)(F)F)cn3)c2)CC1 [PF-3845, N-(pyridin-3-yl)-4-(3-((5-(trifluoromethyl)pyridin-2-yl)oxy)benzyl)piperidine-1-carboxamide]",> 80,9.22,< 5.00,
"NC(=O)c1cccc(-c2cccc(OC(=O)NC3CCCCC3)c2)c1 [URB597, 3'-carbamoyl-[1-1'-biphenyl]-3-yl cyclohexylcarbamate]",,,,time dependent
